Reference: PubChem BioAssay AID1053151 (Broad Institute, 2014)

Tests used:
[1] = tested on: HepG2 secreted ApoB ELISA, 24 h; assay: ApoB secretion inhibition in hepatoma cells – cell-based, HepG2, ELISA, plate reader, cherry-pick, orthogonal assay for Trib1 inducer project, dose response (AID 1053151)
[2] = as above; details: HepG2 secreted ApoB ELISA, 24 h, ApoB inhibition at active concentration, stronger effect = higher value

CN1C(=O)c2cc(NC(=O)c3ccc(C(F)(F)F)cc3)ccc2OC[C@@H]2O[C@H](CC(=O)NC3Cc4ccccc4C3)CC[C@@H]21
active concentration (lower = more potent) [1]: 20 nM
inhibition ([2]; at 0.02 µM): 99%

CN1C(=O)c2cc(NC(=O)c3ccc(C(F)(F)F)cc3)ccc2OC[C@@H]2O[C@@H](CC(=O)NC3Cc4ccccc4C3)CC[C@@H]21
active concentration (lower = more potent) [1]: 3500 nM
inhibition ([2]; at 3.5 µM): 90%
